In this assay the target is T1, Mineralocorticoid receptor (Homo sapiens) (UniProt P08235).
T1 sequence (whole entry): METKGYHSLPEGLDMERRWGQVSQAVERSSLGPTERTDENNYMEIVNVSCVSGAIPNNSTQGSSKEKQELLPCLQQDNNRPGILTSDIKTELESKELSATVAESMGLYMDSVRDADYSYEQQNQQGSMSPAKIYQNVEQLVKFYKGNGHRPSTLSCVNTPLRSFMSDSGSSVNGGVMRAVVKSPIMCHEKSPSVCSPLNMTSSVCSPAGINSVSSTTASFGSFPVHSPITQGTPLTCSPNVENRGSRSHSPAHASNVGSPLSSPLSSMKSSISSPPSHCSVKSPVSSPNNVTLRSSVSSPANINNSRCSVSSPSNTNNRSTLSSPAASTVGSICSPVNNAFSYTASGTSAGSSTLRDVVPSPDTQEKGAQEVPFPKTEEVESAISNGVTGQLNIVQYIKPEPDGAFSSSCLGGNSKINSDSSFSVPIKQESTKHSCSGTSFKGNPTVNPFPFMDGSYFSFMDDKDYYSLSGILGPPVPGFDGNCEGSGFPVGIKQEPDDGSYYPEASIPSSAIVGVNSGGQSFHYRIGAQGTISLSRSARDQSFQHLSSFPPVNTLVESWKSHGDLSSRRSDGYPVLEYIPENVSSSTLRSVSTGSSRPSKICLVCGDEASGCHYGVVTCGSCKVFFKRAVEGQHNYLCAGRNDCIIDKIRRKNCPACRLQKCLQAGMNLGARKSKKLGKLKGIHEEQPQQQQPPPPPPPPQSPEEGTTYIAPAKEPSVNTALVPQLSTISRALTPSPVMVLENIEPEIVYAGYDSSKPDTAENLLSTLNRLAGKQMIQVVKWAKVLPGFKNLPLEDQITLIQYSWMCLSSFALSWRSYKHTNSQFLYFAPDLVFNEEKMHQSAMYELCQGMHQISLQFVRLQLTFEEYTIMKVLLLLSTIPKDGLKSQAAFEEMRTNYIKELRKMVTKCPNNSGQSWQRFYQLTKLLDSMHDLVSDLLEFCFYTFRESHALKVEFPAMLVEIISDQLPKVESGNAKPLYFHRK
Put plainly: Agonist activity at human mineralocorticoid receptor relative to aldosterone. In kind it is functional.

`CC1=C[C@@H]([C@@H]2Oc3c(F)cc(F)cc3-c3ccc4c(c32)C(C)=CC(C)(C)N4)CCC1` (stereo in doubt; (-)-5c): the Efficacy was 8%.
